How the values were obtained:
[1] = system: murine splenocytes; test: Test of lymphocyte proliferation: proliferation of murine splenocytes (tritiated thymidine incorporation); assay type: cell-based, Bal b/c mice; settings: range 100-0.75 μg/ml
[2] = system: murine splenocytes; test: as above; assay type: cell-based, Bal b/c mice; settings: for Proliferation of murine splenocytes, mitogen Con A 2.5 μg/ml (cpm ± DS) / Proliferation of murine splenocytes, mitogen LPS 10 μg/ml (cpm ± DS) / Proliferation of murine splenocytes, mitogen PHA 50 μg/ml (cpm ± DS) / Proliferation of murine splenocytes, mitogen a CD3 20 μg/ml (cpm ± DS): 72 h incubation
Experimental: Proliferation of Murine Splenocytes. Material and Methods
Test of Lymphocyte Proliferation
Culture medium: DMEM+penicillin 50 UI/ml+streptomycin 50 µg/ml+glutamine 2 mM+10% foetal calf serum (complete medium) (FLOW).
Bal b/c mice were used, male, aged 6-8 weeks (IFFA-CREDO).
The cell “pellet” is resuspended in complete medium at a concentration of 4×10^6 cells/ml
In a dish with 96 flat-bottom wells, seriated dilutions are made of the mitogen problem sample with or without “lactone” in a volume of […] in complete medium to which […] 2ME have been added. All the determinations are made in triplicate.
100 μl of the cell suspension are then added, leaving a final volume of 200 μl.
The dish is incubated in a stove at 37° C., 5% CO2 for 66 h.
Following that incubation period, 1 μCi of tritiated thymidine is added to each well.
The dish is again incubated for 6 h.
Once that new incubation period has ended, the dish is processed in a Skatron Harvester, using special Wathman filter paper for this.
The cpm are determined in a liquid scintillation counter.
Negative control: cells in the presence of complete culture medium.
Positive control: cells in the presence of some mitogen.
Arithmetic mean of cpm±standard deviation (1)
The statistical significance is determined by the Student t method.
The results are summarised in the following tables (the cpm are stated following a pulse of tritiated thymidine. The samples of splenocytes were cultivated for 72 h in the presence of mitogen and lactone at the stated concentrations).

[3] = system: human peripheral blood mononuclear cells; test: Stability studies: antiproliferative activity of lactone kept one year in DMSO, human peripheral blood mononuclear cells; assay type: cell-based; settings: for Proliferation of human peripheral blood mononuclear cells, Medium (cpm ± DS) / Proliferation of human peripheral blood mononuclear cells, PHA 10 μg/ml (cpm ± DS) / Proliferation of human peripheral blood mononuclear cells, PHA + rhIL-2 (cpm ± DS): sample kept one year at room temperature at 40.0 mg/ml in DMSO
Experimental: General culture conditions: All cell cultures were developed under conditions of sterility in a vertical laminar flow chamber, using single-use sterile materials or materials sterilised in an autoclave or with ethylene oxide. The cultures were conserved in a stove kept at a temperature of 37° C., in an atmosphere with 5% CO2 and relative humidity of 95%. In the various experiments performed, the purified CMSP cell preparations were incubated in sterile dishes with 96 wells at concentrations of 5×10^4 cells/well (200 μl) in the presence of different concentrations of different mitogens for 5 days.
The method used for quantifying the cell proliferation was analysis of the incorporation of ^3H-thymidine (^3H-T) into DNA synthesised de novo, detecting the emission of β radiation from the dry extracts of cell cultures to which the tritiated base had been added before its finalisation and collection. The synthesis of DNA was done in triplicate on sterile dishes with 96 flat-bottom wells.
From 20 to 24 hour prior to terminating the cell culture, 1 μCi of ^3H-T was added to each well containing medium; the cultures were gathered by suction through a glass filter, using a Skatron culture collector for this.
The synthesis of DNA has been expressed in counts per minute (cpm). Each test was conducted in triplicate, with those data having a variability greater than 10% compared to the mean of the triplicate being rejected, since they could indicate a technical error or contamination in the culture. The cultures were carried out at a constant cell volume per well, as well as at a constant volume of 200 μl.
The sample remains for one year at room temperature and at a concentration of 40.0 mg/ml in DMSO.

[4] = murine splenocytes, 72 h with mitogen and lactone

With `C=C1C(=O)OC(CCc2ccc(OC)cc2)C1C` (stereo not shown) [lactone] the “Cytotoxicity effects on murine splenocytes” value [1] was “Nor was are cytotoxicity effects found”, the “Proliferation of murine splenocytes, mitogen Con A 2.5 μg/ml (cpm ± DS)” value ([2]; Lactone 0.75 μg/ml) was 131,523 cpm and the “Proliferation of murine splenocytes, mitogen Con A 2.5 μg/ml (cpm ± DS)” value ([2]; Lactone 1.5 μg/ml) was 150,400 cpm. For the same compound, the “Proliferation of murine splenocytes, mitogen Con A 2.5 μg/ml (cpm ± DS)” value ([2]; Lactone 3 μg/ml) was 92,600 ± 100 cpm, the “Proliferation of murine splenocytes, mitogen Con A 2.5 μg/ml (cpm ± DS)” value ([2]; Lactone 6 μg/ml) was 78,200 ± 725 cpm and the “Proliferation of murine splenocytes, mitogen Con A 2.5 μg/ml (cpm ± DS)” value ([2]; Lactone 12 μg/ml) was 370 ± 20 cpm. The “Proliferation of murine splenocytes, mitogen Con A 2.5 μg/ml (cpm ± DS)” value ([2]; Lactone 25 μg/ml) was 244 ± 15 cpm, the “Proliferation of murine splenocytes, mitogen LPS 10 μg/ml (cpm ± DS)” value (“Proliferation … mitogen LPS 10 μg/ml (cpm ± DS)” for short) ([2]; Lactone 25 μg/ml) was 3,200 ± 400 cpm and the “Proliferation of murine splenocytes, mitogen PHA 50 μg/ml (cpm ± DS)” value (from here on “Proliferation … mitogen PHA 50 μg/ml (cpm ± DS)”) ([2]; Lactone 25 μg/ml) was 21,000 cpm. For the same compound, the “Proliferation of murine splenocytes, mitogen a CD3 20 μg/ml (cpm ± DS)” value ([2]; Lactone 25 μg/ml) was 5,600 ± 300 cpm, the “Proliferation of murine splenocytes, mitogen Con A 2.5 μg/ml (cpm ± DS)” value ([2]; Lactone 50 μg/ml) was 190 ± 10 cpm and the “Proliferation … mitogen LPS 10 μg/ml (cpm ± DS)” value ([2]; Lactone 50 μg/ml) was 2,700 ± 120 cpm. The “Proliferation … mitogen PHA 50 μg/ml (cpm ± DS)” value ([2]; Lactone 50 μg/ml) was 19,000 cpm, the “Proliferation of murine splenocytes, mitogen a CD3 20 μg/ml (cpm ± DS)” value ([2]; Lactone 50 μg/ml) was 1,235 ± 200 cpm and the “Proliferation of murine splenocytes, mitogen Con A 2.5 μg/ml (cpm ± DS)” value ([2]; Lactone 100 μg/ml) was 147 ± 10 cpm. The “Proliferation … mitogen LPS 10 μg/ml (cpm ± DS)” value ([2]; Lactone 100 μg/ml) was 614 ± 35 cpm, the “Proliferation … mitogen PHA 50 μg/ml (cpm ± DS)” value ([2]; Lactone 100 μg/ml) was 19,500 cpm and the “Proliferation of murine splenocytes, mitogen a CD3 20 μg/ml (cpm ± DS)” value ([2]; Lactone 100 μg/ml) was 285 ± 20 cpm. For the same compound, the “Inhibition of proliferation induced by ConA, antiCD3 and LPS” value [2, 4] was “clearly demonstrated its capacity for inhibiting proliferation”, the “Inhibition of proliferation induced by PHA” value [2, 4] was “but not that induced by PHA” and the “Proliferative effect per se on murine splenocytes” value ([2]; no mitogen, range 100-0.75 μg/ml, sample dissolved in DMSO at 40.0 mg/ml) was “No effect”. For the same compound, the “Proliferation of human peripheral blood mononuclear cells, Medium (cpm ± DS)” value ([3]; Lactone 0.25 μg/ml) was 283 ± 9 cpm, the “Proliferation of human peripheral blood mononuclear cells, PHA 10 μg/ml (cpm ± DS)” value ([3]; Lactone 0.25 μg/ml) was 60428 ± 5820 cpm and the “Proliferation of human peripheral blood mononuclear cells, PHA + rhIL-2 (cpm ± DS)” value ([3]; Lactone 0.25 μg/ml) was 144693 ± 9470 cpm. For the same compound, the “Proliferation of human peripheral blood mononuclear cells, Medium (cpm ± DS)” value ([3]; Lactone 100 μg/ml) was 47 ± 5 cpm, the “Proliferation of human peripheral blood mononuclear cells, PHA 10 μg/ml (cpm ± DS)” value ([3]; Lactone 100 μg/ml) was 906 ± 251 cpm and the “Proliferation of human peripheral blood mononuclear cells, PHA + rhIL-2 (cpm ± DS)” value ([3]; Lactone 100 μg/ml) was 341 ± 21 cpm. The “Stability over time of the product dissolved in dimethylsulphoxide (DMSO)” value ([3]; one year at room temperature, 40.0 mg/ml in DMSO, judged by antiproliferative activity) was “the antiproliferative biological activity of lactone is demonstrated”.

— US6818780B2, “P-hydroxyphenyl propionic acid derivatives as antiproliferative agents” (Consejo Superior de Investigaciones Cientificas, priority 2000, dated 2004)
